The values that follow come from patent US20260001834A1, “COMPOUND OR SALT THEREOF, LIPID COMPOSITION, PHARMACEUTICAL COMPOSITION, AND DELIVERY CARRIER” (FUJIFILM Corporation, priority 2023, published 2026).

The nature of series [1]: Encapsulation rate of mRNA in lipid nanoparticles. Format: physicochemical. As to conditions: EPO mRNA-encapsulating lipid nanoparticles, compound:DSPC:cholesterol:DMG-PEG2000=50:10:38.5:1.5. As for the experimental part:
(§1) The compounds shown in Table 9, 1,2-distearoyl-sn-glycero-3-phosphocholine (product name: COATSOME® MC-8080; NOF corporation) (hereinafter, DSPC), cholesterol (product name: Cholesterol HP; Nippon Seika Co., Ltd.), and 1,2-dimyristoyl-rac-glycero-3-(methylpolyoxyethylene 2000) (hereinafter, DMG-PEG2000) (product name: SUNBRIGHT® GM-020; NOF corporation) were dissolved in ethanol at a molar ratio (mol %) of compounds shown in Table 9:1,2-distearoyl-sn-glycero-3-phosphocholine:cholesterol:DMG-PEG2000=50:10:38.5:1.5 such that the total lipid concentration was 12.5 mmol/L, thereby obtaining an oil phase.
(§2) EPO mRNA (product name: CleanCap EPO mRNA (5moU); TriLink) was diluted with 50 mmol/L citrate buffer having a pH 4.0 such that the weight ratio of total lipid concentration to mRNA concentration is about 20:1, thereby obtaining a water phase. Then, the water phase and the oil phase were mixed together using NanoAssemblr (Precision NanoSystems) such that the volume ratio of water phase:oil phase was 3:1, and the mixed solution was 2-fold diluted with phosphate buffered physiological saline (PBS) or water, thereby obtaining a dispersion liquid of mRNA lipid nanoparticles. The dispersion liquid was dialyzed with 20 mM Tris buffer solution containing 8% sucrose using a dialysis cassette (Slide-A-Lyzer G2, MWCO: 10 kD, Thermo Fisher Scientific) to remove ethanol, thereby obtaining EPO mRNA-encapsulating lipid nanoparticles.
<Evaluation of Encapsulation Rate of mRNA> (Quantification of Total mRNA Concentration)
EPO mRNA was diluted with MilliQ water to prepare a diluted sample in 2-fold dilution series from 100 μg/mL to 3.1 μg/mL, and a standard solution for calibration was prepared. 50 μL of the standard solution for calibration or the mRNA lipid nanoparticles was mixed with 450 μL of methanol to prepare a measurement solution.
The absorbance of each measurement solution at 260 nm and 330 nm was measured using a UV plate reader (Multiskan Go, Thermo Fisher Scientific), the absorbance at 330 nm was subtracted from the absorbance at 260 nm, and the result was used as the absorbance of each measurement solution. The total water phase nucleic acid concentration was calculated from the calibration curve using the absorbance of each sample measurement solution.
(Quantification of mRNA Concentration in Outer Water Phase)
The concentration of the outer water phase nucleic acid was quantified by a standard addition method using a QuanT-iT RiboGreen RNA Assay Kit (Thermo Fisher Scientific). First, a 20×TE buffer included in the above kit was diluted with water, thereby obtaining a 1×TE buffer. TE represents Tris/EDTA (ethylenediaminetetraacetic acid). EPO mRNA was diluted with a TE buffer such that the final concentration was 0 to 400 ng/mL to prepare a nucleic acid diluted series. 10 μL of mRNA lipid nanoparticles diluted 5-fold with TE buffer and 90 μL of a nucleic acid dilution series were mixed in a 96-well plate, 100 μL of a Ribogreen reagent diluted 200-fold with TE buffer was added to each well, and then fluorescence (excitation wavelength: 485 nm, fluorescence wavelength: 535 nm) was measured using a fluorescence plate reader (Infinite 200 Pro M nano+, TECAN). From the obtained results, the outer water phase nucleic acid concentration of each measurement solution was calculated according to the standard addition method.
(Calculation of Encapsulation Rate)
By using the quantification results of the total mRNA concentration and the mRNA concentration in the outer water phase that were obtained through the above steps, the mRNA encapsulation rate of the mRNA lipid nanoparticles was calculated according to the following Equation.

The nature of series [2]: Particle diameter and polydispersity index (PdI) of mRNA-encapsulating lipid nanoparticles. Format: physicochemical. The conditions noted are these: EPO mRNA-encapsulating lipid nanoparticles, compound:DSPC:cholesterol:DMG-PEG2000=50:10:38.5:1.5; diluted with PBS. The procedure: as §1, §2
The particle diameter and the polydispersity index (PdI) of the mRNA-encapsulating lipid nanoparticles were obtained by measuring a dispersion liquid of lipid nanoparticles diluted with phosphate buffered physiological saline (PBS) using a particle size analyzer NanoSAQLA (Otsuka Electronics Co., Ltd.).

The subject of a further series is ICR mice. Put plainly: EPO expression level in mice after intravenous EPO mRNA lipid nanoparticles (human EPO ELISA of plasma). Format: in vivo. As to conditions: mRNA dosage 0.1 mg/kg, plasma 6 hours after administration, Comparative Example set to 1. The procedure:
as §1, §2
The dispersion liquid of mRNA lipid nanoparticles prepared in above <Preparation of EPO mRNA-encapsulating lipid nanoparticles> was intravenously administered to ICR mice at a mRNA dosage of 0.1 mg/kg. 6 hours after the administration, blood was collected from the caudal vena cava, thereby obtaining plasma. The human EPO […] was quantified by using the obtained blood plasma and Erythropoietin (EPO) Human Elisa Kit (Abcam.plc). The quantitative value is described as a relative amount of EPO protein in a case where Comparative Example is set to 1.
In general terms: ELISA stands for enzyme-linked immunosorbent assay.

As for `CCCCCCCCOC(=O)CCCCCCCCC(CCCCCC)OC(=O)OCCN(CCOC(=O)C(CCCC)CCCCCC)CCN(CC)CC` (stereo not shown) [Compound 1, octyl 6-(2-((2-butyloctanoyl)oxy)ethyl)-3-ethyl-12-hexyl-10-oxo-9,11-dioxa-3,6-diazahenicosan-21-oate], in series [1], the “Nucleic acid encapsulation rate” value is given as 89%. Moreover, in series [2], the “Particle diameter (nm)” value is reported as 112 nm and the PdI came out at 0.03.

Consider `CCCCCCOC(=O)CCCCCCCCC(CCCCCC)OC(=O)OCCN(CCOC(=O)C(CCCCCC)CCCCCC)CCN(CC)CC` (stereo not shown) [Compound 2, hexyl 3-ethyl-12-hexyl-6-(2-((2-hexyloctanoyl)oxy)ethyl)-10-oxo-9,11-dioxa-3,6-diazahenicosan-21-oate], for which, in series [1], the “Nucleic acid encapsulation rate” value is reported as 90%. Moreover, in series [2], the “Particle diameter (nm)” value came out at 103 nm and the PdI was 0.03. The “Relative amount of EPO protein (with respect to Comparative Example 1)” value (shortened to “Relative amount of EPO protein”) with ICR mice was 1.61.

`CCCCCCCCC(CCCCCCCC)C(=O)OCCN(CCOC(=O)OC(CCCCCC)CCCC(=O)OCCCCCCC)CCN(CC)CC` (stereo not shown) [Compound 4, heptyl 3-ethyl-12-hexyl-6-(2-((2-octyldecanoyl)oxy)ethyl)-10-oxo-9,11-dioxa-3,6-diazahexadecan-1 6-oate]: the “Nucleic acid encapsulation rate” value in series [1] was 90%. Besides, in series [2], the “Particle diameter (nm)” value stood at 85 nm and the PdI was 0.12. In the series on ICR mice, the “Relative amount of EPO protein” value was determined as 3.09.

As for `CCCCCCCOC(=O)CCCC(CCCCCC)OC(=O)OCCN(CCOC(=O)CC(CCCCCCC)CCCCCCC)CCN(CC)CC` (stereo not shown) [Compound 6, heptyl 3-ethyl-6-(2-((3-heptyldecanoyl)oxy)ethyl)-12-hexyl-10-oxo-9,11-dioxa-3,6-diazahexadecan-16-oate], in series [1], the “Nucleic acid encapsulation rate” value is 77%. For the same molecule, in series [2], the “Particle diameter (nm)” value is reported as 98 nm and the PdI was determined as 0.11. The “Relative amount of EPO protein” value with ICR mice came out at 4.91.

On to `CCCCCCCCOC(=O)CCCC(CCCCCC)OC(=O)OCCN(CCOC(=O)C(CCCCCCC)CCCCCCC)CCN(CC)CC` (stereo not shown) [Compound 7, octyl 3-ethyl-6-(2-((2-heptylnonanoyl)oxy)ethyl)-12-hexyl-10-oxo-9,11-dioxa-3,6-diazahexadecan-16-oate], for which the “Nucleic acid encapsulation rate” value in series [1] came to 79%. Besides, in series [2], the “Particle diameter (nm)” value is listed as 82 nm and the PdI is reported as 0.12. Moreover, the “Relative amount of EPO protein” value in the series on ICR mice amounted to 3.82.

On to `CCCCCCCCOC(=O)CCCC(CCCCCC)OC(=O)OCCN(CCOC(=O)CC(CCCCCCC)CCCCCCC)CCN(CC)CC` (stereo not shown) [Compound 8, octyl 3-ethyl-6-(2-((3-heptyldecanoyl)oxy)ethyl)-12-hexyl-10-oxo-9,11-dioxa-3,6-diazahexadecan-16-oate], for which, in series [1], the “Nucleic acid encapsulation rate” value was found to be 78%. Moreover, in series [2], the “Particle diameter (nm)” value came to 89 nm and the PdI is 0.12. Besides, the “Relative amount of EPO protein” value with ICR mice stood at 3.79.

As for `CCCCCCCC(CCCCCCC)CC(=O)OCCN(CCOC(=O)OC(CCCCCC)CCCC(=O)OCC(CCCCC)CCCCC)CCN(CC)CC` (stereo not shown) [Compound 9, 2-pentylheptyl 3-ethyl-6-(2-((3-heptyldecanoyl)oxy)ethyl)-12-hexyl-10-oxo-9,11-dioxa-3,6-diazahexadecan-16-oate], the “Nucleic acid encapsulation rate” value in series [1] amounted to 85%. In series [2], the “Particle diameter (nm)” value was 77 nm and the PdI came to 0.13. For the same molecule, the “Relative amount of EPO protein” value with ICR mice was found to be 2.30.

Regarding `CCCCCCCC(CCCCCCC)CC(=O)OCCN(CCOC(=O)OC(CCCCCC)CCCC(=O)OCC(CCCCCC)CCCCCC)CCN(CC)CC` (stereo not shown) [Compound 10, 2-hexyloctyl 3-ethyl-6-(2-((3-heptyldecanoyl)oxy)ethyl)-12-hexyl-10-oxo-9,11-dioxa-3,6-diazahexadecan-16-oate], the “Nucleic acid encapsulation rate” value in series [1] was 86%. Further, in series [2], the “Particle diameter (nm)” value was 75 nm and the PdI is given as 0.10. Also, in the series with ICR mice, the “Relative amount of EPO protein” value was 1.72.

As to `CCCCCCCCCC(CCCCCCCCC)C(=O)OCCN(CCOC(=O)OC(CCCCCC)CCCC(=O)OCCCCCCC)CCN(CC)CC` (stereo not shown) [Compound 17, heptyl 3-ethyl-12-hexyl-6-(2-((2-nonylundecanoyl)oxy)ethyl)-10-oxo-9,11-dioxa-3,6-diazahexadecan-16-oate], in series [1], the “Nucleic acid encapsulation rate” value is recorded as 95%. Also, in series [2], the “Particle diameter (nm)” value was 79 nm and the PdI turned out to be 0.15. Besides, the “Relative amount of EPO protein” value with ICR mice was found to be 1.91.

As to `CCCCCCCCCCC(CCCCCCCCCC)C(=O)OCCN(CCOC(=O)OC(CCCCCC)CCCC(=O)OCCCCCCC)CCN(CC)CC` (stereo not shown) [Compound 18, heptyl 6-(2-((2-decyldodecanoyl)oxy)ethyl)-3-ethyl-12-hexyl-10-oxo-9,11-dioxa-3,6-diazahexadecan-16-oate], the “Nucleic acid encapsulation rate” value in series [1] came to 95%. In addition, in series [2], the “Particle diameter (nm)” value is listed as 79 nm and the PdI amounted to 0.13. Further, the “Relative amount of EPO protein” value in the series with ICR mice amounted to 1.30.

Regarding `CCCCCCCCC(CCCCCC)C(=O)OCCN(CCOC(=O)OC(CCCCCC)CCCC(=O)OCCCCCCC)CCN(CC)CC` (stereo not shown) [Compound 19, heptyl 3-ethyl-12-hexyl-6-(2-((2-hexyldecanoyl)oxy)ethyl)-10-oxo-9,11-dioxa-3,6-diazahexadecan-1 6-oate], the “Nucleic acid encapsulation rate” value in series [1] was found to be 94%. For the same molecule, in series [2], the “Particle diameter (nm)” value amounted to 91 nm and the PdI is listed as 0.09. Also, in the series with ICR mice, the “Relative amount of EPO protein” value is 4.31.

As to `CCCCCCCOC(=O)CCCC(CCCCCC)OC(=O)OCCN(CCCN(CC)CC)CCOC(=O)C(CCCCCC)CCCCCC` (stereo not shown) [Compound 20, heptyl 3-ethyl-13-hexyl-7-(2-((2-hexyloctanoyl)oxy)ethyl)-11-oxo-10,12-dioxa-3,7-diazaheptadecan-17-oate], the “Nucleic acid encapsulation rate” value in series [1] came to 87%. In series [2], the “Particle diameter (nm)” value was 137 nm and the PdI is given as 0.10. Moreover, in the series on ICR mice, the “Relative amount of EPO protein” value is recorded as 1.68.

On to `CCCCCCCOC(=O)CCCCC(CCCCCC)OC(=O)OCCN(CCCN(CC)CC)CCOC(=O)C(CCCCCC)CCCCCC` (stereo not shown) [Compound 21, heptyl 3-ethyl-13-hexyl-7-(2-((2-hexyloctanoyl)oxy)ethyl)-11-oxo-10,12-dioxa-3,7-diazaoctadecan-1 8-oate], for which the “Nucleic acid encapsulation rate” value in series [1] is on record as 89%. In series [2], the “Particle diameter (nm)” value is 129 nm and the PdI came out at 0.12. For the same molecule, the “Relative amount of EPO protein” value with ICR mice came to 1.65.

Regarding `CCCCCCCOC(=O)CCCCC(CCCCCC)OC(=O)OCCN(CCCN(CC)CC)CCOC(=O)C(CCCCCCC)CCCCCCC` (stereo not shown) [Compound 22, heptyl 3-ethyl-7-(2-((2-heptylnonanoyl)oxy)ethyl)-13-hexyl-11-oxo-10,12-dioxa-3,7-diazaoctadecan-18-oate], the “Nucleic acid encapsulation rate” value in series [1] is 94%. In series [2], the “Particle diameter (nm)” value came to 95 nm and the PdI worked out at 0.10. In the series with ICR mice, the “Relative amount of EPO protein” value is on record as 6.09.
